The values that follow come from PubChem BioAssay AID212 (DTP/NCI, 2004).

For this assay, the system named is BDF1 mice, colon carcinoma 38 sc, T/C %. The experiment in a line: NCI In Vivo Anticancer Drug Screen. Data for tumor model Colon Carcinoma 38 (subcutaneous) in B6D2F1 (BDF1) mice. The method, boiled down: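 Ratio of survival or tumor size, compound-treated animals relative to vehicle controls, in tumor-bearing mice.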
[1] abbreviates: endpoint: median tumor weight (est.), dose: 50.0 mg/kg/injection, schedule: Q07DX003 (ip), vehicle: saline, higher = larger tumour.
Where [2] appears, read: endpoint: median tumor weight (est.), dose: 200.0 mg/kg/injection, schedule: Q07DX003 (ip), vehicle: saline, higher = larger tumour.
Setting [3] is: endpoint: median tumor weight (est.), dose: 50.0 mg/kg/injection, schedule: Q07DX002 (ip), vehicle: saline, higher = larger tumour.
The mark [4] stands for this setting: endpoint: median tumor weight (est.), dose: 200.0 mg/kg/injection, schedule: Q07DX002 (ip), vehicle: saline, higher = larger tumour.
Setting [5] is: endpoint: median tumor weight (est.), dose: 12.5 mg/kg/injection, schedule: Q07DX002 (ip), vehicle: saline, higher = larger tumour.
Setting [6] is: endpoint: median tumor weight (est.), dose: 25.0 mg/kg/injection, schedule: Q07DX002 (ip), vehicle: saline, higher = larger tumour.
[7] abbreviates: endpoint: median tumor weight (est.), dose: 25.0 mg/kg/injection, schedule: Q07DX002 (ip), vehicle: saline with Tween-80, higher = larger tumour.
The mark [8] stands for this setting: endpoint: median tumor weight (est.), dose: 100.0 mg/kg/injection, schedule: Q07DX002 (ip), vehicle: saline with Tween-80, higher = larger tumour.
Where [9] appears, read: endpoint: median tumor weight (est.), dose: 200.0 mg/kg/injection, schedule: Q07DX002 (ip), vehicle: saline with Tween-80, higher = larger tumour.
[10] abbreviates: endpoint: median tumor weight (est.), dose: 12.5 mg/kg/injection, schedule: Q07DX002 (ip), vehicle: saline with Tween-80, higher = larger tumour.

“And” between values parts separate entries of the source, which are not always exact repeats. Identical values can stand only once. Results filed as inconclusive are left out.

For the compound `N=C(N)Sc1cc(O)ccc1O`, the T/C runs as follows: (endpoint: median tumor weight (est.), dose: 12.5 mg/kg/injection, schedule: Q07DX003 (ip), vehicle: saline, higher = larger tumour) 88 % of control; (endpoint: median tumor weight (est.), dose: 25.0 mg/kg/injection, schedule: Q07DX003 (ip), vehicle: saline, higher = larger tumour) 66 % of control; under setting [1], 77 % of control; (endpoint: median tumor weight (est.), dose: 100.0 mg/kg/injection, schedule: Q07DX003 (ip), vehicle: saline, higher = larger tumour) 103 % of control; under setting [2], 55 % of control.

As for `Cc1nnc2ncccn12`, the T/C under setting [3] is 84 % of control and 105 % of control; the T/C under setting [4] is 113 % of control and 102 % of control; the T/C (endpoint: median tumor weight (est.), dose: 400.0 mg/kg/injection, schedule: Q07DX002 (ip), vehicle: saline, higher = larger tumour) was 81 % of control.

Regarding `CC(=O)OCC1OC(n2ncc(=O)[nH]c2=O)C(OC(C)=O)C1OC(C)=O` (stereo not drawn), the T/C reads like this: (endpoint: median tumor weight (est.), dose: 50.0 mg/kg/injection, schedule: Q07DX002 (ip), vehicle: suspension in saline, higher = larger tumour) 100 % of control; (endpoint: median tumor weight (est.), dose: 100.0 mg/kg/injection, schedule: Q07DX002 (ip), vehicle: suspension in saline, higher = larger tumour) 95 % of control; (endpoint: median tumor weight (est.), dose: 200.0 mg/kg/injection, schedule: Q07DX002 (ip), vehicle: suspension in saline, higher = larger tumour) 52 % of control; (endpoint: median tumor weight (est.), dose: 400.0 mg/kg/injection, schedule: Q07DX002 (ip), vehicle: suspension in saline, higher = larger tumour) 66 % of control; (endpoint: median tumor weight (est.), dose: 800.0 mg/kg/injection, schedule: Q07DX002 (ip), vehicle: suspension in saline, higher = larger tumour) 64 % of control.

As to `O=C1C=C(C2OC(CO)C(O)C2O)C(=O)N1` (stereo not drawn), the T/C is, setting by setting: (endpoint: median tumor weight (est.), dose: 1.56 mg/kg/injection, schedule: Q07DX002 (ip), vehicle: saline, higher = larger tumour) 66 % of control; (endpoint: median tumor weight (est.), dose: 3.12 mg/kg/injection, schedule: Q07DX002 (ip), vehicle: saline, higher = larger tumour) 56 % of control; (endpoint: median tumor weight (est.), dose: 6.25 mg/kg/injection, schedule: Q07DX002 (ip), vehicle: saline, higher = larger tumour) 70 % of control; under setting [5], 113 % of control; under setting [6], 83 % of control.

As to `COC1=C(OC)C(=O)C(SC/C=C(\C)CCCC(C)CCCC(C)CCCC(C)C)=CC1=O` (stereo not drawn), the T/C was 55 % of control under setting [7]; 116 % of control under setting [8]; 86 % of control under setting [9]; 102 % of control (endpoint: median tumor weight (est.), dose: 400.0 mg/kg/injection, schedule: Q07DX002 (ip), vehicle: saline with Tween-80, higher = larger tumour).

Consider `C/C(=C\c1ccccc1)[N+](=O)[O-]`, for which the T/C reads like this: (endpoint: median tumor weight (est.), dose: 12.5 mg/kg/injection, schedule: Q07DX003 (ip), vehicle: Klucel (hydroxypropylcellulose) (HPC), higher = larger tumour) 81 % of control; (endpoint: median tumor weight (est.), dose: 25.0 mg/kg/injection, schedule: Q07DX003 (ip), vehicle: Klucel (hydroxypropylcellulose) (HPC), higher = larger tumour) 79 % of control and 91 % of control; (endpoint: median tumor weight (est.), dose: 50.0 mg/kg/injection, schedule: Q07DX003 (ip), vehicle: Klucel (hydroxypropylcellulose) (HPC), higher = larger tumour) 82 % of control and 90 % of control.

Take `CC(=Nc1ccccc1)C1=C(O)C(Cc2ccccc2)NC1=O` (stereo not drawn): the T/C under setting [10] was 86 % of control and 105 % of control; the T/C under setting [8] was 45 % of control and 50 % of control; the T/C under setting [9] was 70 % of control and 82 % of control.

`O=C1C(O)=C(c2ccccc2)C(=O)C(O)=C1c1ccccc1`: the T/C under setting [10] is 103 % of control; the T/C under setting [5] was 89 % of control; the T/C under setting [7] is 111 % of control; the T/C under setting [6] was 55 % of control; the T/C (endpoint: median tumor weight (est.), dose: 50.0 mg/kg/injection, schedule: Q07DX002 (ip), vehicle: saline with Tween-80, higher = larger tumour) was 86 % of control; the T/C under setting [3] is 106 % of control. In addition, the T/C is 105 % of control (endpoint: median tumor weight (est.), dose: 100.0 mg/kg/injection, schedule: Q07DX002 (ip), vehicle: saline, higher = larger tumour) and 102 % of control under setting [4].

As for `O=C(O)CC(NC(=O)CP(=O)(O)O)C(=O)O` (stereo not drawn), the T/C is, setting by setting: under setting [1], 95 % of control; (endpoint: median tumor weight (est.), dose: 51.8 mg/kg/injection, schedule: Q01DX004 (ip), vehicle: saline, higher = larger tumour) 102 % of control; (endpoint: median tumor weight (est.), dose: 86.4 mg/kg/injection, schedule: Q01DX004 (ip), vehicle: saline, higher = larger tumour) 75 % of control; (endpoint: median tumor weight (est.), dose: 119.0 mg/kg/injection, schedule: Q01DX009 (ip), vehicle: saline, higher = larger tumour) 34 % of control; (endpoint: median tumor weight (est.), dose: 144.0 mg/kg/injection, schedule: Q01DX004 (ip), vehicle: saline, higher = larger tumour) 12 % of control; (endpoint: median tumor weight (est.), dose: 178.0 mg/kg/injection, schedule: Q01DX009 (ip), vehicle: saline, higher = larger tumour) 12 % of control. Besides, the T/C is 79 % of control (endpoint: median tumor weight (est.), dose: 180.0 mg/kg/injection, schedule: Q04DX004 (ip), vehicle: saline, higher = larger tumour); 115 % of control under setting [2]; 9 % of control (endpoint: median tumor weight (est.), dose: 240.0 mg/kg/injection, schedule: Q01DX004 (ip), vehicle: saline, higher = larger tumour); 75 % of control (endpoint: median tumor weight (est.), dose: 300.0 mg/kg/injection, schedule: Q04DX004 (ip), vehicle: saline, higher = larger tumour); 70 % of control (endpoint: median tumor weight (est.), dose: 370.0 mg/kg/injection, schedule: Q07DX003 (ip), vehicle: saline, higher = larger tumour); 75 % of control (endpoint: median tumor weight (est.), dose: 400.0 mg/kg/injection, schedule: Q07DX003 (ip), vehicle: saline, higher = larger tumour). Besides, the T/C is 58 % of control (endpoint: median tumor weight (est.), dose: 500.0 mg/kg/injection, schedule: Q04DX004 (ip), vehicle: saline, higher = larger tumour); 40 % of control (endpoint: median tumor weight (est.), dose: 552.0 mg/kg/injection, schedule: Q07DX003 (ip), vehicle: saline, higher = larger tumour); 21 % of control (endpoint: median tumor weight (est.), dose: 800.0 mg/kg/injection, schedule: Q07DX003 (ip), vehicle: saline, higher = larger tumour).

`Nc1ccc(Cl)cc1N`: the T/C under setting [10] was 75 % of control and 97 % of control; the T/C under setting [7] was 78 % of control and 92 % of control.

With `c1ccc2c(NCCCCCCCCNc3c4ccccc4nc4ccccc34)c3ccccc3nc2c1`, the T/C was 109 % of control and 101 % of control (endpoint: median tumor weight (est.), dose: 5.0 mg/kg/injection, schedule: Q07DX002 (ip), vehicle: Klucel (hydroxypropylcellulose) (HPC), higher = larger tumour); 78 % of control and 93 % of control (endpoint: median tumor weight (est.), dose: 10.0 mg/kg/injection, schedule: Q07DX002 (ip), vehicle: Klucel (hydroxypropylcellulose) (HPC), higher = larger tumour); 75 % of control and 77 % of control (endpoint: median tumor weight (est.), dose: 20.0 mg/kg/injection, schedule: Q07DX002 (ip), vehicle: Klucel (hydroxypropylcellulose) (HPC), higher = larger tumour); 72 % of control and 87 % of control (endpoint: median tumor weight (est.), dose: 40.0 mg/kg/injection, schedule: Q07DX002 (ip), vehicle: Klucel (hydroxypropylcellulose) (HPC), higher = larger tumour); 79 % of control and 100 % of control (endpoint: median tumor weight (est.), dose: 80.0 mg/kg/injection, schedule: Q07DX002 (ip), vehicle: Klucel (hydroxypropylcellulose) (HPC), higher = larger tumour).

Regarding `CO[C@H]1C[C@](C)(O)Cc2cc3c(c(O)c21)C(=O)c1c(O)cc2c(c1C3=O)O[C@@H]1O[C@@]2(C)[C@H](O)[C@@H](N(C)C)[C@@H]1O`, the T/C was 166 % of control (endpoint: median survival time, dose: 72.0 mg/kg/injection, schedule: Q07DX003 (sc), vehicle: other, higher = longer survival); 69 % of control (endpoint: median tumor weight (est.), dose: 12.5 mg/kg/injection, schedule: Q07DX002 (ip), vehicle: other, higher = larger tumour); 21 % of control and 41 % of control (endpoint: median tumor weight (est.), dose: 25.0 mg/kg/injection, schedule: Q07DX002 (ip), vehicle: other, higher = larger tumour); 1 % of control (endpoint: median tumor weight (est.), dose: 50.0 mg/kg/injection, schedule: Q07DX002 (ip), vehicle: other, higher = larger tumour).

On to `O=C[C@@H](CO)O[C@H](C=O)n1cnc2c(=O)[nH]cnc21`, for which the T/C (endpoint: median tumor weight (est.), dose: 18.7 mg/kg/injection, schedule: Q07DX002 (ip), vehicle: saline, higher = larger tumour) was 168 % of control; the T/C (endpoint: median tumor weight (est.), dose: 37.5 mg/kg/injection, schedule: Q07DX002 (ip), vehicle: saline, higher = larger tumour) was 105 % of control; the T/C (endpoint: median tumor weight (est.), dose: 75.0 mg/kg/injection, schedule: Q07DX002 (ip), vehicle: saline, higher = larger tumour) is 121 % of control; the T/C (endpoint: median tumor weight (est.), dose: 150.0 mg/kg/injection, schedule: Q07DX002 (ip), vehicle: saline, higher = larger tumour) was 100 % of control; the T/C (endpoint: median tumor weight (est.), dose: 300.0 mg/kg/injection, schedule: Q07DX002 (ip), vehicle: saline, higher = larger tumour) is 120 % of control; the T/C (endpoint: median tumor weight (est.), dose: 600.0 mg/kg/injection, schedule: Q07DX002 (ip), vehicle: saline, higher = larger tumour) was 86 % of control.
